# Test results taken from article PMC11231114 (EJNMMI Research, 2024).
# Where “and” joins values, the source holds several entries; their conditions need not be identical. Equal values may be shown once. Read-outs that look alike come from different tables or passages of the source.
# How the values were obtained:
# [1] = cited from earlier work; for accumulation in cardiac tissue / heart/liver ratio / heart/lungs ratio: 1 h post-injection
# [2] = cited from earlier work
# [3] = test system: dog hepatocytes; assay: Metabolite profiling in cryopreserved hepatocytes (in vitro MetID); format: in vitro ADME; details: 1 µM SYN2, 37 °C
# Procedure: (§1) The metabolite profiling and characterization experiment of SYN2 molecule (in vitro MetID, Admescope) was conducted to evaluate potential metabolic pathways. In order to characterize the metabolites of SYN2, the compound was incubated in cryopreserved rat, dog and human hepatocytes. Prior to the incubation, the hepatocytes were thawed, suspended in Williams medium E and then centrifuged to receive a target density of about 1 million cells/ml. A SYN2 solution of 1 µM was then added to the hepatocyte suspension and incubated at 37 °C for 0, 30 and 60 min. The incubations were stopped by the addition of acetonitrile, then frozen and centrifuged to remove precipitated proteins. Supernatants were then analysed with ultra-performance liquid chromatography (UPLC) and high-resolution mass spectrometry (HRMS).
# (§2) Compound Discoverer (CD) was used for data mining with manual confirmation for metabolite profiling and characterization.
# [4] = test system: human hepatocytes; assay: as above; format: in vitro ADME; details: 1 µM SYN2, 37 °C
# Procedure: as §1, §2
# [5] = test system: rat hepatocytes; assay: as above; format: in vitro ADME; details: 1 µM SYN2, 37 °C
# Procedure: as §1, §2
# [6] = available SPECT and PET tracers
# [7] = human studies, exercise stress subjects
# [8] = human studies, exercise stress subjects, listed as [^18F]flurpiridaz
compound,measurement,setting,value
CC(C)(C)n1ncc(OCc2ccc(COCC[18F])cc2)c(Cl)c1=O [[^18F]Flurpiridaz],accumulation in cardiac tissue,[1],3.3 ± 0.3 %ID/g
same,heart/liver ratio,[1],3.7 ± 0.2
same,heart/lungs ratio,[1],12.7 ± 1.4
same,heart/blood ratio,[1],13
same,Effective dose,[2]; [6],0.015 mSv/MBq
same,"Absorbed dose per administrated activity, Adrenals",[2]; [7],1.40E-02 mSv/MBq
same,"Absorbed dose per administrated activity, Brain",[2]; [7],1.10E-02 mSv/MBq
same,"Absorbed dose per administrated activity, Breasts",[2]; [7],1.00E-02 mSv/MBq
same,"Absorbed dose per administrated activity, Gallbladder Wall",[2]; [7],1.50E-02 mSv/MBq
same,"Absorbed dose per administrated activity, Heart Wall",[2]; [7],3.90E-02 mSv/MBq
same,"Absorbed dose per administrated activity, Kidneys",[2]; [7],2.70E-02 mSv/MBq
same,"Absorbed dose per administrated activity, Liver",[2]; [7],1.50E-02 mSv/MBq
same,"Absorbed dose per administrated activity, Lower Large Intestine Wall",[2]; [7],1.40E-02 mSv/MBq
same,"Absorbed dose per administrated activity, Lungs",[2]; [7],1.20E-02 mSv/MBq
same,"Absorbed dose per administrated activity, Muscle",[2]; [7],1.20E-02 mSv/MBq
same,"Absorbed dose per administrated activity, Osteogenic Cells",[2]; [7],2.00E-02 mSv/MBq
same,"Absorbed dose per administrated activity, Ovaries",[2]; [7],1.40E-02 mSv/MBq
same,"Absorbed dose per administrated activity, Pancreas",[2]; [7],1.50E-02 mSv/MBq
same,"Absorbed dose per administrated activity, Red Marrow",[2]; [7],1.50E-02 mSv/MBq
same,"Absorbed dose per administrated activity, Skin",[2]; [7],9.00E-03 mSv/MBq
same,"Absorbed dose per administrated activity, Small Intestine",[2]; [7],1.40E-02 mSv/MBq
same,"Absorbed dose per administrated activity, Spleen",[2]; [7],1.30E-02 mSv/MBq
same,"Absorbed dose per administrated activity, Stomach Wall",[2]; [7],2.40E-02 mSv/MBq
same,"Absorbed dose per administrated activity, Testes",[2]; [7],1.10E-02 mSv/MBq
same,"Absorbed dose per administrated activity, Thymus",[2]; [7],1.30E-02 mSv/MBq
same,"Absorbed dose per administrated activity, Thyroid",[2]; [7],1.40E-02 mSv/MBq
same,"Absorbed dose per administrated activity, Total Body",[2]; [7],1.20E-02 mSv/MBq
same,"Absorbed dose per administrated activity, Upper Large Intestine Wall",[2]; [7],1.40E-02 mSv/MBq
same,"Absorbed dose per administrated activity, Urinary Bladder Wall",[2]; [7],1.60E-02 mSv/MBq
same,"Absorbed dose per administrated activity, Uterus",[2]; [7],1.40E-02 mSv/MBq
same,Effective Dose Equivalent,[2]; [7],1.60E-02 mSv/MBq
same,Effective dose,[2]; [7],1.50E-02 mSv/MBq
same,"Absorbed dose per administrated activity, Heart Wall",[2]; [8],0.0390 mSv/MBq and 0.039 mSv/MBq
same,"Absorbed dose per administrated activity, Kidneys",[2]; [8],0.027 mSv/MBq
same,"Absorbed dose per administrated activity, Stomach Wall",[2]; [8],0.024 mSv/MBq
same,Effective dose,[2]; [8],0.0150 mSv/MBq
[15OH2] [[^15O]H2O],Effective dose,[2]; [6],0.0011 mSv/MBq
CNc1ccc2cc3ccc(N)cc3[n+](CCF)c2c1 [M3],"Relative abundance of metabolites calculated as % of parent (SYN2), Dog",[3]; 30 min,9 % of parent
same,"Relative abundance of metabolites calculated as % of parent (SYN2), Dog",[3]; 60 min,46 % of parent
same,"Relative abundance of metabolites calculated as % of parent (SYN2), Human",[4]; 30 min,1 % of parent
same,"Relative abundance of metabolites calculated as % of parent (SYN2), Human",[4]; 60 min,3 % of parent
same,"Relative abundance of metabolites calculated as % of parent (SYN2), Rat",[5]; 30 min,27 % of parent
same,"Relative abundance of metabolites calculated as % of parent (SYN2), Rat",[5]; 60 min,666 % of parent
CN(C)c1ccc2cc3ccc(N(C)C)cc3nc2c1 [M4],"Relative abundance of metabolites calculated as % of parent (SYN2), Dog",[3]; 30 min,Trace
same,"Relative abundance of metabolites calculated as % of parent (SYN2), Human",[4]; 30 min,1 % of parent
same,"Relative abundance of metabolites calculated as % of parent (SYN2), Human",[4]; 60 min,1 % of parent
same,"Relative abundance of metabolites calculated as % of parent (SYN2), Rat",[5]; 30 min,Trace
[82Rb+].[Cl-] [[^82Rb]Rubidium chloride],Effective dose,[2]; [6],0.0011 mSv/MBq
CNc1ccc2cc3ccc(N(C)C)cc3[n+](CCF)c2c1 [M1],"Relative abundance of metabolites calculated as % of parent (SYN2), Dog",[3]; 30 min,34 % of parent
same,"Relative abundance of metabolites calculated as % of parent (SYN2), Dog",[3]; 60 min,58 % of parent
same,"Relative abundance of metabolites calculated as % of parent (SYN2), Human",[4]; 30 min,10 % of parent
same,"Relative abundance of metabolites calculated as % of parent (SYN2), Human",[4]; 60 min,19 % of parent
same,"Relative abundance of metabolites calculated as % of parent (SYN2), Rat",[5]; 30 min,94 % of parent
same,"Relative abundance of metabolites calculated as % of parent (SYN2), Rat",[5]; 60 min,137 % of parent
CCOCCP(CCOCC)CCP(CCOCC)CCOCC.CCOCCP(CCOCC)CCP(CCOCC)CCOCC.[O]=[99Tc+]=[O] [[^99mTc]Tc-tetrofosmin],Effective dose,[2]; [6],0.0069 mSv/MBq
[Cl][201Tl] [[^201Tl]Thallium chloride],Effective dose,[2]; [6],0.14 mSv/MBq
[C-]#[N+]CC(C)(C)OC.[C-]#[N+]CC(C)(C)OC.[C-]#[N+]CC(C)(C)OC.[C-]#[N+]CC(C)(C)OC.[C-]#[N+]CC(C)(C)OC.[C-]#[N+]CC(C)(C)OC.[Tc] [[^99mTc]Tc-sestamibi],accumulation in cardiac tissue,[1],2.0 ± 0.3 %ID/g
same,heart/liver ratio,[1],2.4 ± 0.2
same,heart/lungs ratio,[1],5.9 ± 0.5
same,Effective dose,[2]; [6],0.0079 mSv/MBq
same,absorbed dose in kidneys,[2],0.036 mSv/MBq
[13NH3] [[^13N]Ammonia],Effective dose,[2]; [6],0.002 mSv/MBq
